Data reported in US7700792B2, “Highly active lysophosphatidic acid and method of screening therewith” (Ono Pharmaceutical Co., Ltd., priority 2003, dated 2010).

Columns and labels:
[1] = test system: Male CD (SD) IGS rats; test: Increasing urethral pressure measuring system under anesthesia of rat with urethane; type: in vivo; settings: i.v., urethane-anesthetized rat
Description: Male CD (SD) IGS rats (Charles River Japan Inc., 8-9 week-old in use) were anesthetized by subcutaneous administration of urethane (1.2 g/kg). After incision of cervical median, jugular catheter for administration of drug and arterial catheter for measurement of blood pressure were inserted. After incising of hypogastrium median, urethra was tied off in the vicinity of pubic bone. Urethra catheter was inserted into urethra by incision of dome of urinary bladder and fixed by ligation at the bladder neck. Urethra catheter was connected to the pressure tranducer and urethral pressure was measured. Subsequently, urethral pressure was adjusted about 20 mmHg and left until stabilizing (for about 20 minutes).

[2] = test system: isolated urethra of rat; test: Contraction-measuring system using an isolated urethra of rat; settings: Magnus tube, urethra strips, control high concentration KCl
Experimental: After sacrificing female or male CD (SD) IGS rats (Charles River Japan Inc., 8-9 week-old in use) by blowing heads and exsanguinating from carotid artery and jugular vein, urethra under pubis was isolated carefully and soaked in Krebs-Henseleit solution (112 mM NaCl, 5.9 mM KCl, 2.0 mM CaCl2, 1.2 mM MgCl2, 1.2 mM NaH2PO4, 25.0 mM NaHCO3, 11.5 mM Glucose) immediately. Urethra part was cut from isolated sample, and was dissected flatly and subsequently was cut parallel to circular muscle. Thus, 2-3 strips of sample that are 3-4 mm long by 2-3 mm wide were made from one animal.
The made samples were suspended in the Magnus tube (volume: 10 mL) filled by Krebs-Henseleit solution (vented by 37±1° C., mixed gas [95% O2+5% CO2]). The samples were added about 0.5 g tension and stabilized for 60 min, and subsequently the contractile activity was recorded on recorder (lincarcoder WR3320: GRAPHTEC CORP.) via a pressure amplifier (AP-621G: Nihon Kohden Ltd) from Force displacement transducer (FD pick-up TB-611T; Nihon Kohden Ltd).
The contractile reaction of control was given by stimulation of high concentration KCl solution (solution replaced all NaCl with KCl).

SMILES	increase of urethral pressure ([1]; 0.3 mg/kg) [mmHg]	increase of urethral pressure ([1]; 1.0 mg/kg) [mmHg]	contracting effect on the isolated urethra of rat [2]
CCCCC/C=C\C/C=C\CCCCCCCC(=O)OC[C@@H](O)COP(=O)([O-])[O-].[Na+].[Na+] [1-linoleoyl(18:2)-LPA, D(+)-sn-1-o-linoleoyl-glyceryl-3-phosphate. sodium salt, reference compound]	0.6	0.8	
CCCCC[C@@H]1O[C@@H]1C[C@H]1O[C@H]1CCCCCCCC(=O)OC[C@H](O)COP(=O)(O)O [Example 1-1]	5.4	8.5	contracting effect
